In PMC11003481, “Synthesis, biological evaluation, and computational studies of N-benzyl pyridinium–curcumin derivatives as potent AChE inhibitors with antioxidant activity” (Journal of Enzyme Inhibition and Medicinal Chemistry, 2023):
Where “and” joins values, the source holds several entries; their conditions need not be identical. Identical values can stand only once.

Assays:
[1] = ABTS radical cation decolorisation antioxidant assay
Protocol: The antioxidant activity was determined using a radical cation (ABTS^.+) decolorisation assay, as described by Xiao et al.[21] with a few modifications. The assay used a BioTek Epoch 2 microplate spectrophotometer (Agilent, USA) with clear, flat-bottom 96-well plates. The 7 mmol/L ABTS^.+ stock solution was prepared by dissolving 96.02 mg ABTS in acetic acid buffer (pH 4.5) and to a final volume of 25 ml, which was kept in the dark at 0–4 °C. A 2.45 mmol/L potassium persulfate (K2S2O8) stock solution was prepared by dissolving 66.24 mg K2S2O8 in acetic acid buffer solution with pH 4.5, and then diluted to 100 ml and kept in the dark at 0–4 °C. The ABTS working solution was prepared by mixing similar quantities of 7 mmol/L ABTS and 2.45 mmol/L K2S2O8. This solution was stored in a dark cabinet for 16 h before use, when it was diluted with distilled water to obtain an absorbance of 0.70 at 734 nm. In a clear, flat-bottom 96-well plate, 200 μL of ABTS working solution and 10.0 μL sample solution at different concentrations (0.0312–0.5 mg/mL) were mixed well and incubated in the dark for 7 min before the absorbance was measured at 734 nm using a microplate reader. A blank was run for each assay, and all measurements were performed after 7 min. The ABTS scavenging capacity of inhibitors was compared with that of trolox and α-tocopherol. […]

[2] = target: acetylcholinesterase (eeAChE, from Electrophorus electricus) (Electrophorus electricus, UniProt O42275); assay: biochemical; settings: for Selectivity Index (SI) (AChE): Selectivity ratio [IC50(BChE)/IC50(AChE)]; for IC50: eeAChE, mean ± SEM of three independent experiments, duplicate samples, read-out: IC50 ± SEM AChE
acetylcholinesterase (eeAChE, from Electrophorus electricus), sequence (O42275 24-633): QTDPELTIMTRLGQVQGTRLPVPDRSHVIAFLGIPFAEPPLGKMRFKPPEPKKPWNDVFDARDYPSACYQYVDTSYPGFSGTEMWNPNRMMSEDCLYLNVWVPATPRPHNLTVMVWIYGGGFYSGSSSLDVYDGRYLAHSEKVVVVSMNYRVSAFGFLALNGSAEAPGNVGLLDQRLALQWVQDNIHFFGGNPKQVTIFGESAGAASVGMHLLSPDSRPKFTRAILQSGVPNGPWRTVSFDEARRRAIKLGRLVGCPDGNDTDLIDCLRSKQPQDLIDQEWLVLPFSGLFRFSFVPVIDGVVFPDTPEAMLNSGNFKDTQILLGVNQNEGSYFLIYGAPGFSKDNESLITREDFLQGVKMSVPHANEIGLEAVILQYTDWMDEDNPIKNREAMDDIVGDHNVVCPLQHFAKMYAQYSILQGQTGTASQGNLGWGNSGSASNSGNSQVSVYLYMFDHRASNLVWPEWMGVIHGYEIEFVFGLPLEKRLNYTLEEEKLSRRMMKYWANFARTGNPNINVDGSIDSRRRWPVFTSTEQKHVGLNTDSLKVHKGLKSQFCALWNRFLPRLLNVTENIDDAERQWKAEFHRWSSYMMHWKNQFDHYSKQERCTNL
Protocol: (§1) The AChE and BChE inhibitory activity assays were performed using a BioTek Epoch 2 microplate spectrophotometer in clear, flat-bottom 96-well plates. […] To each well, 295 µL phosphate buffer pH 8.0, 10 µL enzyme solution (AChE/BChE), and 10 µL target compound solutions were added together and allowed to stand for 4 min at room temperature. Then, 10 µL of 0.01 M solution freshly prepared Ellman’s reagent 5,5′-dithiobis(2-nitrobenzoic acid) (DTNB) was added to each well. The reaction in the wells was started by the addition of 2 µL of 0.075 M solution freshly prepared substrate (ATCh (acetylthiocholine iodide)/BTCh (S-butyrylthiocholine iodide)) solution. The solution was mixed immediately and incubated for 2:30 min for AChE or for 5 min for BChE inside the microplate reader at 26 °C. […] The IC50 values were calculated graphically by nonlinear regression analysis of inhibition curves that were obtained by plotting the logarithm of the inhibitor concentrations versus the percentage of inhibition (log(inhibitor) vs. normalised response) using GraphPad Prism 8 software (See Supplementary Information for details).

eeAChE = eeAChE (Electrophorus electricus, UniProt O42275); assay: biochemical; format: biochemical; settings: for Ki: from slopes of Lineweaver-Burk plots versus inhibitor concentration, substrate ATCh, read-out: Ki ± SEM eeAChE
eeAChE, sequence (O42275 24-633): as above
Protocol: The slopes of the Lineweaver-Burk reciprocal plots against the concentrations of the compound (inhibitor) were plotted to obtain the Ki values for the prepared compounds (Table 1). The value at which the line intersects the x-axis is -Ki.
The assay was performed in triplicate using different inhibitor concentrations. […] The assay was carried out in clear, flat-bottom 96-well plates, to which 5 µL distilled water was added to all wells of columns 2–3, rows B-F. Then, 5 µL of the lowest concentration of inhibitor solution was added to the wells of columns 4–5, 5 µL of the median concentration of inhibitor solution was added to the wells of columns 6–7, and 5 µL of the highest concentration of inhibitor solution was added to the wells of columns 8–9. Next, 275 μL enzyme solution was added to the wells, and the plates were incubated for 4 min. Then, 10 μL 2.5 mM DTNB was added to the wells, followed by 10 μL of 32, 16, 8, 4, or 2 mM ATCh solutions to initiate the reactions. The plates were placed in a microplate reader for direct kinetic measurements.
The inhibition constant (Ki) for each inhibitor was calculated by averaging the ATCh hydrolysis rates from three independent experiments. Using GraphPad Prism 8 software, nonlinear regression was used to calculate the Km and Vmax values of the Michaelis-Menten kinetics by plotting [substrate] versus velocity. For the Lineweaver-Burk plots, linear regression was used to plot [1/ATCh] versus […]. Finally, the Ki values were obtained by plotting the slopes against [inhibitor] [20].

[3] = target: T1, butyrylcholinesterase (eqBChE, from equine serum) (Equus caballus, UniProt P81908); assay: biochemical; settings: mean ± SEM of three independent experiments, duplicate samples, read-out: IC50 ± SEM BChE
T1 construct: butyrylcholinesterase (eqBChE, from equine serum); from tissue; host or cells: equine serum
T1 sequence (P81908 whole entry): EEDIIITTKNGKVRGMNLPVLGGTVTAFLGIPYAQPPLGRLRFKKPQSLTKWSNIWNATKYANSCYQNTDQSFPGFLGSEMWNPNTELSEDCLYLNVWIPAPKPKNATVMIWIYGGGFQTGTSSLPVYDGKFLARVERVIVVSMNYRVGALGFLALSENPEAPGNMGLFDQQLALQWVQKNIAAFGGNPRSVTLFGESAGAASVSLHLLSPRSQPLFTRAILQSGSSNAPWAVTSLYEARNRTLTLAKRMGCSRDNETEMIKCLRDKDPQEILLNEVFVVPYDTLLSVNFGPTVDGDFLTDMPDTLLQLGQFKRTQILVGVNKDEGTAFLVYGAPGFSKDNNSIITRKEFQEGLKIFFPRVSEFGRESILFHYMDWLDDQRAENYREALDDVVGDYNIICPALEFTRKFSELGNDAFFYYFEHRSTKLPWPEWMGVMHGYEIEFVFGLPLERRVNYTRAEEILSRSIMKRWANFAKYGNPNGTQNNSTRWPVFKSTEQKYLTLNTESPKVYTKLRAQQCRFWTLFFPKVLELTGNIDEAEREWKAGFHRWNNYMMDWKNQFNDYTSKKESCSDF
Protocol: as §1

Structure (SMILES)	ABTS Inhibition % ([1]; 0.0312 mg/mL)	ABTS Inhibition % ([1]; 0.0625 mg/mL)	ABTS Inhibition % ([1]; 0.125 mg/mL)	ABTS Inhibition % ([1]; 0.25 mg/mL)	ABTS Inhibition % ([1]; 0.5 mg/mL)	Selectivity Index (SI) (AChE) [2]	IC50 [2]	Ki (eeAChE)	Type of AChE inhibition (Lineweaver-Burk pattern) (eeAChE; slopes and intercepts increased with inhibitor concentration)	IC50 [3]
O=C(/C=C/c1ccccc1)/C=C/c1cc[n+](Cc2ccccc2)cc1 [Compound 7a, 1-Benzyl-4-(1E,4E)-3-oxo-5-phenylpenta-1,4-dien-1-yl)pyridin-1-ium bromide]	1.4 ± 0.56%	1.5 ± 0.30%	1.7 ± 0.68%	3.5 ± 0.72%	6.4 ± 0.47%	19	0.032 ± 0.00022 µM	0.039 ± 1.1e-05 µM	mixed-type inhibition	–
O=C(/C=C/c1ccccc1)/C=C/c1cc[n+](Cc2ccc(Br)cc2)cc1 [Compound 7c, 1–(4-Bromobenzyl)-4-(1E,4E)-3-oxo-5-phenylpenta-1,4-dien-1-yl)pyridin-1-ium bromide]	–	–	–	–	–	3	0.28 ± 0.0002 µM	–	–	–
Cc1ccc(C[n+]2ccc(/C=C/C(=O)/C=C/c3ccccc3)cc2)cc1 [Compound 7d, 1–(4-Methylbenzyl)-4-(1E,4E)-3-oxo-5-phenylpenta-1,4-dien-1-yl)pyridin-1-ium bromide]	–	–	–	–	–	4	1.12 ± 0.00014 µM	–	–	4.5 ± 0.073 µM
O=C(/C=C/c1ccccc1)/C=C/c1cc[n+](Cc2ccc([N+](=O)[O-])cc2)cc1 [Compound 7e, 1–(4-Nitrobenzyl)-4-(1E,4E)-3-oxo-5-phenylpenta-1,4-dien-1-yl)pyridin-1-ium bromide]	–	–	–	–	–	5	0.8 ± 0.00012 µM	–	–	3.9 ± 0.052 µM
COc1cc(/C=C/C(=O)/C=C/c2cc[n+](Cc3ccccc3)cc2)ccc1O [Compound 7f, 1-Benzyl-4-(1E,4E)-5–(4-hydroxy-3-methoxyphenyl)-3-oxopenta-1,4-dien-1-yl)pyridin-1-ium bromide]	5.9 ± 0.47%	13.7 ± 0.50%	23.7 ± 0.51%	35.5 ± 0.93%	55.3 ± 1.42%	55	0.0075 µM	0.006 ± 3.6e-05 µM	–	–
COc1cc(/C=C/C(=O)/C=C/c2cc[n+](Cc3ccc(Br)cc3)cc2)ccc1O [Compound 7h, 1–(4-Bromobenzyl)-4-(1E,4E)-5–(4-hydroxy-3-methoxyphenyl)-3-oxopenta-1,4-dien-1-yl)pyridin-1-ium bromide]	–	–	–	–	–	10	0.71 ± 0.00016 µM	–	–	6.36 ± 0.106 µM
COc1cc(/C=C/C(=O)/C=C/c2cc[n+](Cc3ccc(C)cc3)cc2)ccc1O [Compound 7i, 4-(1E,4E)-5–(4-Hydroxy-3-methoxyphenyl)-3-oxopenta-1,4-dien-1-yl)-1–(4-methylbenzyl)pyridin-1-ium bromide]	–	–	–	–	–	3	0.22 ± 0.00017 µM	–	–	–
COc1cc(/C=C/C(=O)/C=C/c2cc[n+](Cc3ccc([N+](=O)[O-])cc3)cc2)ccc1O [Compound 7j, 4-(1E,4E)-5–(4-Hydroxy-3-methoxyphenyl)-3-oxopenta-1,4-dien-1-yl)-1–(4-nitrobenzyl)pyridin-1-ium bromide]	–	–	–	–	–	–	0.23 ± 0.00019 µM	–	–	1.4 ± 0.083 µM
O=C(/C=C/c1ccccc1)/C=C/c1ccc[n+](Cc2ccccc2)c1 [Compound 8a, 1-Benzyl-3-(1E,4E)-3-oxo-5-phenylpenta-1,4-dien-1-yl)pyridin-1-ium bromide]	0.0 ± 0.70%	0.3 ± 0.28%	0.4 ± 0.36%	1.4 ± 0.49%	2.6 ± 0.38%	14	≤ 0.056 µM and 0.056 µM	0.102 ± 8e-06 µM	–	–
O=C(/C=C/c1ccccc1)/C=C/c1ccc[n+](Cc2ccc(F)cc2)c1 [Compound 8b, 1–(4-Fluorobenzyl)-3-(1E,4E)-3-oxo-5-phenylpenta-1,4-dien-1-yl)pyridin-1-ium bromide]	0.2 ± 0.40%	0.3 ± 0.22%	1.0 ± 0.52%	2.3 ± 0.64%	5.1 ± 0.62%	7	≤ 0.056 µM and 0.054 µM	0.09 ± 1.2e-05 µM	–	–
O=C(/C=C/c1ccccc1)/C=C/c1ccc[n+](Cc2ccc(Br)cc2)c1 [Compound 8c, 1–(4-Bromobenzyl)-3-(1E,4E)-3-oxo-5-phenylpenta-1,4-dien-1-yl)pyridin-1-ium bromide]	–	–	–	–	–	1	1.16 ± 0.00017 µM	–	–	–
Cc1ccc(C[n+]2cccc(/C=C/C(=O)/C=C/c3ccccc3)c2)cc1 [Compound 8d, 1–(4-Methylbenzyl)-3-(1E,4E)-3-oxo-5-phenylpenta-1,4-dien-1-yl)pyridin-1-ium bromide]	–	–	–	–	–	4	0.63 ± 0.0002 µM	–	–	2.5 ± 0.079 µM
O=C(/C=C/c1ccccc1)/C=C/c1ccc[n+](Cc2ccc([N+](=O)[O-])cc2)c1 [Compound 8e, 1–(4-Nitrobenzyl)-3-(1E,4E)-3-oxo-5-phenylpenta-1,4-dien-1-yl)pyridin-1-ium bromide]	–	–	–	–	–	2	–	–	–	2.7 ± 0.063 µM
COc1cc(/C=C/C(=O)/C=C/c2ccc[n+](Cc3ccc(Br)cc3)c2)ccc1O [Compound 8h, 1–(4-Bromobenzyl)-3-(1E,4E)-5–(4-hydroxy-3-methoxyphenyl)-3-oxopenta-1,4-dien-1-yl)pyridin-1-ium bromide]	–	–	–	–	–	3	0.63 ± 0.00022 µM	–	–	1.8 ± 0.121 µM
COc1cc(/C=C/C(=O)/C=C/c2ccc[n+](Cc3ccc(C)cc3)c2)ccc1O [Compound 8i, 3-(1E,4E)-5–(4-Hydroxy-3-methoxyphenyl)-3-oxopenta-1,4-dien-1-yl)-1–(4-methylbenzyl)pyridin-1-ium bromide]	–	–	–	–	–	11	0.27 ± 0.021 µM	–	–	2.5 ± 0.1 µM
COc1cc(/C=C/C(=O)/C=C/c2ccc[n+](Cc3ccc([N+](=O)[O-])cc3)c2)ccc1O [Compound 8j, 3-(1E,4E)-5–(4-Hydroxy-3-methoxyphenyl)-3-oxopenta-1,4-dien-1-yl)-1–(4-nitrobenzyl)pyridin-1-ium bromide]	–	–	–	–	–	–	0.66 ± 0.00021 µM	–	–	9.8 ± 0.09 µM
Cc1c(C)c2c(c(C)c1O)CCC(C)(C(=O)O)O2 (stereo not shown) [Trolox, reference compound]	9.3 ± 1.2%	24.7 ± 1.2%	51.0 ± 2.3%	91.5 ± 1.8%	93.9 ± 0.1%	–	–	–	–	–
Cc1c(C)c2c(c(C)c1O)CC[C@@](C)(CCC[C@H](C)CCC[C@H](C)CCCC(C)C)O2 [α-tocopherol, reference compound]	6.9 ± 2.3%	15.9 ± 1.0%	29.7 ± 1.3%	56.4 ± 0.72%	90.2 ± 0.04%	–	–	–	–	–
